From US20150126603A1, “TREATMENT OF POULTRY, PIGS OR FISH FOR REDUCING THE FEED CONVERSION RATIO OR INCREASING THEIR BODYWEIGHT GAIN” (TAMINCO, priority 2012, published 2015)
Like-named read-outs stand apart in the source and are kept apart here.

Assays:
[1] = test system: broiler chickens; conditions: cited from earlier work
[2] = test system: Ross 308 chickens
Experimental: A group of 252 Ross 308 chickens were randomly distributed over 14 pens with 18 animals each. All chickens were previously housed in identical conditions, and fed the same diet as the control group in the trial. Every other pen was attributed to either a control diet or that control diet supplemented with 500 mg β-alanine per kg (=595 mg or 6.7 mmol β-alanine per kg dry weight). Water was freely available from drinking cups, and animals were fed ad libitum. The control diet was a commercial broiler diet (Vanden Avenne, Braadkip 114 MB) with 4% corn oil added to increase the level of oxidative stress, as used in earlier studies (Kalmar et al., 2011).
From the age of 24 days to the age of 48 days, the change in bodyweight was measured per bird, but pooled per pen as the experimental unit. At 42 days of age, one male bird per pen was euthanized by intravenous injection of sodium pentobarbital. From the breast and thigh muscle, a sample was dissected and stored airtight at −20° C. until analysis. The breast muscle sample was taken at about one third from the distal end of the breast.

[3] = test system: chickens; conditions: 22 mmol/kg bodyweight orally twice a day for five days; cited from earlier work
[4] = test system: pigs
Experimental: At 9 weeks of age, 48 pigs (24 gilts and 24 chirurgical castrated barrows) were divided randomly into groups of four pigs of the same gender. Each group was housed in a separate pen resulting in six pens of four gilts and six pens of four barrows. All pigs were fed the same commercial diet and for three of the six pens of gilts and three of the six pens of barrows their diet was supplemented with 500 mg β-alanine per kg (=568 mg or 6.4 mmol β-alanine per kg dry weight). Water was freely available and the animals were fed ad libitum. After 6 weeks (age of 15 weeks) all animals were euthanized by natrium-pentobarbital.

[5] = test system: pigs; conditions: cited from earlier work
[6] = test system: carps
Experimental: A group of 24 carps were distributed over 12 aquaria with 2 fish each. All fish were previously housed in identical conditions, and fed the same diet as the control group in the trial. Every other aquarium was attributed to either a control diet or that control diet supplemented with 500 mg β-alanine per kg. Feeding was done at 1.5% of the body weight, during 2 feeding times/day. To increase the level of oxidative stress, the carps were kept at 27° C. (4° C. above the advised temperature).
The change in bodyweight after the 14 day feeding experiment was measured per fish, but pooled per aquarium as the experimental unit.

[7] = test system: Japanese flounders; conditions: 8.9 g/kg of β-alanine in diet; cited from earlier work
[8] = test system: broiler chickens; conditions: 0.5% of carnosine in broiler feed; cited from earlier work
[9] = 0.5% of β-alanine in feed for 4 weeks
[10] = 1 and 2% of β-alanine in feed for 4 weeks
[11] = 500 mg/kg beta-alanine in diet, between 24 and 42 days of age
[12] = 0.225% of β-alanine in pig diet
[13] = β-alanine in combination with histidine
[14] = 500 mg/kg beta-alanine in diet, 14 days
[15] = 500 mg/kg beta-alanine in diet, 14 days, 27° C.

For `NCCC(=O)O` [Beta-alanine, β-alanine], the bodyweight gain [1, 9] is listed as “no significant changes”, the feed conversion ratio [1, 9] is listed as “no significant changes” and the bodyweight gain [1, 10] is listed as “decreased significantly”. For the same compound, the feed conversion ratio [1, 10] was “increased”, the Average daily gain [2, 11] was 108 g and the Final bodyweight [2, 11] was 2.874 kg. For the same compound, the “bodyweight at slaughter vs control” value ([2]; 500 mg/kg β-alanine in diet) was “tended to have a higher bodyweight at slaughter”, the “bodyweight gain vs control” value ([2]; 500 mg/kg β-alanine in diet) was “tended to have a higher bodyweight gain” and the Initial bodyweight ([2]; baseline at 24 days of age, 500 mg/kg group) was 1.362 kg. For the same compound, the bodyweight gain [3] was “also decreased”, the feed consumption [3] was “also decreased” and the feed conversion ratio [3] was “decreased”. The “Bodyweight gain over 6 weeks” value ([4]; 500 mg/kg beta-alanine in diet, 9 to 15 weeks of age) was 25.4, the Final bodyweight ([4]; 500 mg/kg beta-alanine in diet, 15 weeks of age) was 44.1 kg and the “bodyweight at slaughter vs control” value ([4]; 500 mg/kg β-alanine in diet) was “tend to have a higher bodyweight at slaughter”. The “bodyweight gain vs control” value ([4]; 500 mg/kg β-alanine in diet) was “tended to have a higher bodyweight gain”, the “overall growth of the piglets” value ([4]; 500 mg/kg β-alanine in diet) was “increases the overall growth” and the “death or illness during the trial” value ([4]; 500 mg/kg β-alanine in diet, 6 weeks) was “No animals died or became ill”. The Initial bodyweight ([4]; baseline at 9 weeks of age, 500 mg/kg group) was 18.7 kg, the bodyweight gain [5, 12] was “decreased somewhat” and the feed conversion ratio [5, 12] was “decreased somewhat”. For the same compound, the bodyweight gain [5, 13] was “decreased even more”, the feed conversion ratio [5, 13] was “increased to become higher than the control” and the Average feed intake [6, 14] was 44.1 g. The feed conversion ratio [6, 14] was 2.7 g:g, the Average weight gain [6, 15] was 19.0 g and the Final bodyweight [6, 15] was 230.1 g. For the same compound, the Initial bodyweight ([6]; baseline, 500 mg/kg group) was 211.1 g, the bodyweight gain [7] was “increased somewhat but not significantly” and the feed conversion ratio [7] was “increased significantly”.
For `NCCC(=O)N[C@@H](Cc1c[nH]cn1)C(=O)O` [carnosine, β-alanyl-L-histidine], the “chicken meat quantity and quality” value [8] is given as “improve”, the feed conversion ratio [8] is given as “improved but not statistically significantly” and the weight gain [8] is given as “improved but not statistically significantly”.
